Inconclusive results and toxic doses are left out. No stated cut-off is given here; in the data, active means T/C of 150% or more; inactive means T/C below 125%.
Test system: L1210 leukemia ip in BDF1 mice, survival T/C
Experiment: NCI In Vivo Anticancer Drug Screen. Data for tumor model L1210 Leukemia (intraperitoneal) in B6D2F1 (BDF1) mice
Settings: endpoint: mean survival time, higher = longer survival
Method in brief: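 Transplanted-tumor mice were given test agent; controls received vehicle only. Survival readings from the two groups were divided (treated over control).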

[1] = dose: 100.0 mg/kg/injection, schedule: Q01DX001 (ip), vehicle: other
[2] = dose: 100.0 mg/kg/injection, schedule: Q04DX003 (ip), vehicle: Klucel (hydroxypropylcellulose) (HPC)
[3] = dose: 200.0 mg/kg/injection, schedule: Q04DX003 (ip), vehicle: Klucel (hydroxypropylcellulose) (HPC)
[4] = dose: 400.0 mg/kg/injection, schedule: Q04DX003 (ip), vehicle: Klucel (hydroxypropylcellulose) (HPC)
[5] = dose: 100.0 mg/kg/injection, schedule: Q01DX009 (ip), vehicle: saline with Tween-80
[6] = dose: 200.0 mg/kg/injection, schedule: Q01DX009 (ip), vehicle: saline with Tween-80
[7] = dose: 400.0 mg/kg/injection, schedule: Q01DX009 (ip), vehicle: saline with Tween-80
[8] = dose: 100.0 mg/kg/injection, schedule: Q01DX009 (ip), vehicle: Klucel (hydroxypropylcellulose) (HPC)
[9] = dose: 200.0 mg/kg/injection, schedule: Q01DX009 (ip), vehicle: Klucel (hydroxypropylcellulose) (HPC)
[10] = dose: 400.0 mg/kg/injection, schedule: Q01DX009 (ip), vehicle: Klucel (hydroxypropylcellulose) (HPC)
[11] = dose: 100.0 mg/kg/injection, schedule: Q04DX002 (ip), vehicle: Klucel (hydroxypropylcellulose) (HPC)
[12] = dose: 200.0 mg/kg/injection, schedule: Q04DX002 (ip), vehicle: Klucel (hydroxypropylcellulose) (HPC)
[13] = dose: 100.0 mg/kg/injection, schedule: Q04DX003 (ip), vehicle: saline

Measured: T/C

COc1ccc(C2(C=O)CN(C)CN2)cc1 (stereo unspecified)
inactive: [1] 96 % of control | dose: 200.0 mg/kg/injection, schedule: Q01DX001 (ip), vehicle: other 107 % of control | dose: 400.0 mg/kg/injection, schedule: Q01DX001 (ip), vehicle: other 96 % of control

COc1ccc(-n2c(=O)c(N=Nc3ccc(Cl)cc3)c(O)n(-c3ccc(I)cc3)c2=S)cc1
inactive: dose: 37.5 mg/kg/injection, schedule: Q01DX001 (ip), vehicle: Klucel (hydroxypropylcellulose) (HPC) 97 % of control | dose: 75.0 mg/kg/injection, schedule: Q01DX001 (ip), vehicle: Klucel (hydroxypropylcellulose) (HPC) 90 % of control | dose: 150.0 mg/kg/injection, schedule: Q01DX001 (ip), vehicle: Klucel (hydroxypropylcellulose) (HPC) 97 % of control

O=c1oc2ccccc2c(O)c1C(c1ccc2c(c1)CCC2)c1c(O)c2ccccc2oc1=O
inactive: [2] 92 % of control | [3] 100 % of control | [4] 92 % of control

Oc1cccc(-c2cccc(OCCCCCCCCCCBr)c2)c1
inactive: dose: 12.5 mg/kg/injection, schedule: Q01DX009 (ip), vehicle: DMSO 108 % of control | dose: 25.0 mg/kg/injection, schedule: Q01DX009 (ip), vehicle: DMSO 94 % of control | dose: 100.0 mg/kg/injection, schedule: Q04DX003 (ip), vehicle: DMSO 92 % of control | dose: 200.0 mg/kg/injection, schedule: Q04DX003 (ip), vehicle: DMSO 91 % of control

COC(=O)c1ccccc1N=NN(C)C1CCCCC1
inactive: dose: 100.0 mg/kg/injection, schedule: Q01DX009 (ip), vehicle: other 106 % of control | dose: 200.0 mg/kg/injection, schedule: Q01DX009 (ip), vehicle: other 87 % of control

CCCCCCCCCCCCSCCCN
inactive: dose: 12.5 mg/kg/injection, schedule: Q04DX003 (ip), vehicle: saline with Tween-80 96 % of control | dose: 25.0 mg/kg/injection, schedule: Q04DX003 (ip), vehicle: saline with Tween-80 93 % of control | dose: 50.0 mg/kg/injection, schedule: Q04DX003 (ip), vehicle: saline with Tween-80 96 % of control

O=C1CCCCC1C(O)(C(=O)c1ccccc1)c1ccccc1 (stereo unspecified) (tested in a mixture with another compound)
inactive: dose: 50.0 mg/kg/injection, schedule: Q01DX009 (ip), vehicle: saline with Tween-80 97 % of control | [5] 87 % of control | [6] 91 % of control

Cc1nc(N)[nH]c(=O)c1NC(=O)CBr
inactive: dose: 50.0 mg/kg/injection, schedule: Q01DX001 (ip), vehicle: Klucel (hydroxypropylcellulose) (HPC) 100 % of control | dose: 100.0 mg/kg/injection, schedule: Q01DX001 (ip), vehicle: Klucel (hydroxypropylcellulose) (HPC) 104 % of control

O=C(O)c1cc(C(=O)O)c(C(=O)O)cc1C(=O)O
inactive: [5] 96 % of control | [6] 91 % of control | [7] 94 % of control

Cc1cccc2c(=O)c(C(=O)O)cn(C)c12
inactive: dose: 50.0 mg/kg/injection, schedule: Q04DX002 (ip), vehicle: saline 107 % of control | dose: 100.0 mg/kg/injection, schedule: Q04DX002 (ip), vehicle: saline 107 % of control | dose: 200.0 mg/kg/injection, schedule: Q04DX002 (ip), vehicle: saline 107 % of control

C(=N\N(c1ccccc1)c1ccccc1)/c1ccc(/C=N/N(c2ccccc2)c2ccccc2)cc1
inactive: [8] 92 % of control | [9] 90 % of control | [10] 96 % of control

O=C(COc1cc(Cl)c(Cl)cc1Cl)Nc1ccccc1Br
inactive: [11] 95 % of control | [12] 98 % of control | dose: 400.0 mg/kg/injection, schedule: Q04DX002 (ip), vehicle: Klucel (hydroxypropylcellulose) (HPC) 106 % of control

C(/C=C/c1ccccc1)=C1c2ccccc2-c2ccccc21
inactive: [5] 88 % of control | dose: 100.0 mg/kg/injection, schedule: Q04DX003 (ip), vehicle: saline with Tween-80 90 % of control | [6] 98 % of control | dose: 200.0 mg/kg/injection, schedule: Q04DX003 (ip), vehicle: saline with Tween-80 93 % of control | [7] 96 % of control | dose: 400.0 mg/kg/injection, schedule: Q04DX003 (ip), vehicle: saline with Tween-80 95 % of control

O=S(=O)(CC(Cl)c1ccccc1)c1ccc(F)cc1 (stereo unspecified)
inactive: dose: 100.0 mg/kg/injection, schedule: Q01DX001 (ip), vehicle: saline 109 % of control | dose: 100.0 mg/kg/injection, schedule: Q01DX009 (ip), vehicle: saline 91 % of control | [13] 91 % of control | dose: 200.0 mg/kg/injection, schedule: Q01DX001 (ip), vehicle: saline 100 % of control | dose: 200.0 mg/kg/injection, schedule: Q01DX009 (ip), vehicle: saline 110 % of control | dose: 200.0 mg/kg/injection, schedule: Q04DX003 (ip), vehicle: saline 97 % of control | dose: 400.0 mg/kg/injection, schedule: Q01DX001 (ip), vehicle: saline 97 % of control | dose: 400.0 mg/kg/injection, schedule: Q01DX009 (ip), vehicle: saline 99 % of control | dose: 400.0 mg/kg/injection, schedule: Q04DX003 (ip), vehicle: saline 98 % of control

CCNC(=O)c1ccccc1-c1ccccc1C(=O)NCC
inactive: [1] 104 % of control

Nc1nc(N)c2[nH]c(CCCc3ccccc3)nc2n1
inactive: dose: 50.0 mg/kg/injection, schedule: Q04DX002 (ip), vehicle: Klucel (hydroxypropylcellulose) (HPC) 98 % of control | [11] 98 % of control | [12] 98 % of control

O=C(CN1C(=O)c2ccccc2C1=O)OC(c1ccccc1)c1ccccc1
inactive: [8] 102 % of control | [2] 98 % of control | [9] 104 % of control | [3] 96 % of control | [10] 104 % of control | [4] 96 % of control

Cn1c(Cc2ccccc2)c(-c2ccccc2)c(-c2ccccc2)c1Cc1ccccc1
inactive: dose: 75.0 mg/kg/injection, schedule: Q01DX001 (ip), vehicle: saline 94 % of control | dose: 150.0 mg/kg/injection, schedule: Q01DX001 (ip), vehicle: saline 88 % of control | dose: 300.0 mg/kg/injection, schedule: Q01DX001 (ip), vehicle: saline 93 % of control

CN(N)P(=O)(Nc1ccccc1)Nc1ccccc1
inactive: dose: 50.0 mg/kg/injection, schedule: Q04DX003 (ip), vehicle: Klucel (hydroxypropylcellulose) (HPC) 98 % of control | dose: 75.0 mg/kg/injection, schedule: Q01DX009 (ip), vehicle: Klucel (hydroxypropylcellulose) (HPC) 102 % of control | [2] 91 % of control | dose: 150.0 mg/kg/injection, schedule: Q01DX009 (ip), vehicle: Klucel (hydroxypropylcellulose) (HPC) 115 % of control | [3] 96 % of control | dose: 300.0 mg/kg/injection, schedule: Q01DX009 (ip), vehicle: Klucel (hydroxypropylcellulose) (HPC) 100 % of control

CN(C)CC(CN1c2ccccc2Sc2ccccc21)N(C)C (stereo unspecified)
inactive: dose: 6.25 mg/kg/injection, schedule: Q01DX009 (ip), vehicle: saline 94 % of control | dose: 12.5 mg/kg/injection, schedule: Q01DX009 (ip), vehicle: saline 105 % of control | dose: 25.0 mg/kg/injection, schedule: Q01DX009 (ip), vehicle: saline 92 % of control | dose: 25.0 mg/kg/injection, schedule: Q04DX003 (ip), vehicle: saline 96 % of control | dose: 50.0 mg/kg/injection, schedule: Q01DX009 (ip), vehicle: saline 101 % of control | dose: 50.0 mg/kg/injection, schedule: Q04DX003 (ip), vehicle: saline 93 % of control | [13] 90 % of control

From PubChem BioAssay AID248 (DTP/NCI, 2004)
